Laboratory results taken from ChEMBL document CHEMBL4732190, “Identification of Potent and Long-Acting Single-Chain Peptide Mimetics of Human Relaxin-2 for Cardiovascular Diseases” (J Med Chem, 2021).
Converted amounts (≈) assume the structure as drawn. *1 amine or outer side, *2 acyl side, *3 side chain or, on linkers, in order; H or OH if unused. Where a SMILES comes first, the peptide text is derived from it. [ ]: non-standard residue; d: D form. The star is where a group is joined. PEG11 = NCCOCCOCCOCCOCCOCCOCCOCCOCCOCCOCCOCCC(=O)O; X2 = CCCCCCCCCCCCCCCCCC(=O)[C@H](CCC(N)=O)N*; X1 = CCCCCCCCCCCCCCCCC(=O)[C@H](CCC(N)=O)N*; β2hAla(2S) = C[C@@H](CN[*:1])C(=O)[*:2]; hLys = NCCCCC[C@H](N)C(=O)O; Nle = CCCC[C@H](N)C(=O)O; AEEA = NCCOCCOCC(=O)O

Key:
Relaxin receptor 1 [1] = target: T1, Relaxin receptor 1 (Homo sapiens, UniProt Q9HBX9); test: Agonist activity at RXFP1 endogenously expressed in human OVCAR-5 cells assessed as increase in IBMX-induced cAMP accumulation pretreated with IBMX for 40 mins followed by compound addition and measured after 30 mins by HTRF assay; assay type: functional, cell-based
T1 sequence (Q9HBX9 whole entry): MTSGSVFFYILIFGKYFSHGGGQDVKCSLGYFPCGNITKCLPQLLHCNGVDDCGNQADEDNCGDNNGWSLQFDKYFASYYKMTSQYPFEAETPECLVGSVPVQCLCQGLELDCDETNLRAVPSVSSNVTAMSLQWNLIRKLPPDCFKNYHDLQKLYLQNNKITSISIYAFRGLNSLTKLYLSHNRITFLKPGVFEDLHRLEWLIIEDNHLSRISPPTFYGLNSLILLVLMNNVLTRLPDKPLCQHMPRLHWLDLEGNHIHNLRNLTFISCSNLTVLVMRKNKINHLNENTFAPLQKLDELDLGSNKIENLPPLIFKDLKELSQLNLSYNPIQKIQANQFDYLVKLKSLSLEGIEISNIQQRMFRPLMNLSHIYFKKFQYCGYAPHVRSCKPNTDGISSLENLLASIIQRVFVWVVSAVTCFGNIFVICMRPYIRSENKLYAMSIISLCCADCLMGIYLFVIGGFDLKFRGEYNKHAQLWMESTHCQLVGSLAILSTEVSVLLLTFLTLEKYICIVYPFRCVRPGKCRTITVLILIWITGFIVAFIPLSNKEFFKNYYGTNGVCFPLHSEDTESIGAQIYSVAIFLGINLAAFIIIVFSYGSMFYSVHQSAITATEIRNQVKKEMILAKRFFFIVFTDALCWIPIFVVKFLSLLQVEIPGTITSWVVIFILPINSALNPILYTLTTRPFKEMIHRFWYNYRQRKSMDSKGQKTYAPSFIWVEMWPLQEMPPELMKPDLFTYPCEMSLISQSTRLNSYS

[2] = target: T2, Relaxin receptor 1 (Homo sapiens) (UniProt Q9HBX9); test: Agonist activity at RXFP1 endogenously expressed in human OVCAR-5 cells assessed as increase in IBMX-induced cAMP accumulation pretreated with IBMX for 40 mins followed by compound addition and measured after 30 mins by HTRF assay relative to relaxin; assay type: functional, cell-based; conditions: filed as agonist
T2 sequence (whole entry): T1 sequence (Q9HBX9 whole entry)

[3] = Half life in Sprague-Dawley rat at 1 mg/kg, iv measured upto 72 hrs by LC-HRMS analysis; assay type: ADME, organism-based; conditions: in vivo
Relaxin receptor 1 [4] = target: T1, Relaxin receptor 1; test: Agonist activity at RXFP1 endogenously expressed in human OVCAR-5 cells assessed as increase in IBMX-induced cAMP accumulation pretreated with IBMX for 40 mins followed by compound addition and measured after 30 mins in presence of 2 % HSA by HTRF assay; assay type: functional, cell-based
[5] = target: T2, Relaxin receptor 1 (Homo sapiens); test: Selectivity ratio of EC50 for agonist activity at RXFP1 endogenously expressed in human OVCAR-5 cells in presence of 2 % HSA to EC50 for agonist activity at RXFP1 endogenously expressed in human OVCAR-5 cells in absence of HSA; assay type: cell-based
[6] = Stability in human blood assessed as parent compound at 5 uM remaining after 4 hrs; assay type: ADME, tissue-based; conditions: read-out: Stabilty
[7] = Stability in rat blood assessed as parent compound at 5 uM remaining after 4 hrs; assay type: ADME, tissue-based; conditions: read-out: Stabilty
[8] = target: T2, Relaxin receptor 1 (Homo sapiens); test: Agonist activity at RXFP1 endogenously expressed in human OVCAR-5 cells assessed as increase in IBMX-induced cAMP accumulation pretreated with IBMX for 40 mins followed by compound addition and measured after 30 mins in presence of 2 % HSA by HTRF assay relative to control; assay type: functional, cell-based; conditions: filed as agonist
[9] = Bioavailability in Sprague-Dawley rat at 3 mg/kg, sc measured upto 72 hrs by LC-HRMS analysis; assay type: ADME, organism-based; conditions: in vivo
[10] = Stability in human plasma assessed as parent compound remaining level at 5 uM remaining after 4 hrs; assay type: ADME, cell-free; conditions: read-out: Stabilty
[11] = Aqueous solubility of compound in phosphate buffer at pH 7.4 measured after 24 hrs by UPLC analysis; assay type: physicochemical
[12] = Stability in rat plasma assessed as parent compound remaining level at 5 uM remaining after 4 hrs; assay type: ADME, cell-free; conditions: read-out: Stabilty
[13] = Positive chronotropic activity in pithed Sprague-Dawley rat assessed as increase in heart rate at 20 to 1000 mg/kg, iv administered as bolus dose measured after 60 mins post dose; assay type: ADME, organism-based; conditions: in vivo, 1 h, dose 20-1000 mg/kg
[14] = Positive chronotropic activity in pithed Sprague-Dawley rat assessed as increase in heart rate at 1000 mg/kg, iv administered as bolus dose measured after 60 mins post dose; assay type: ADME, organism-based; conditions: in vivo, 1 h

Question: What does the source list for `CCCCCCCCCCCCCCCCC(=O)[C@H](CCC(N)=O)NC(=O)[C@H](CCC(=O)O)NC(=O)[C@H](CCC(=O)O)NC(=O)[C@H](CCCCN)NC(=O)[C@H](CCCCN)NC(=O)[C@H](CCCNC(=N)N)NC(=O)[C@@H](C)CNC(=O)[C@H](CO)NC(=O)[C@H](Cc1c[nH]c2ccccc12)NC(=O)[C@@H](NC(=O)[C@H](CO)NC(=O)[C@H](CCSC)NC(=O)CNC(=O)[C@H](CCC(=O)O)NC(=O)[C@@H](C)CNC(=O)[C@@H](C)CNC(=O)[C@@H](NC(=O)[C@H](CCC(N)=O)NC(=O)[C@H](C)NC(=O)[C@H](CCCNC(=N)N)NC(=O)[C@@H](NC(=O)[C@H](CCCCN)NC(=O)[C@H](CCC(=O)O)NC(=O)[C@H](CCCNC(=N)N)NC(=O)[C@H](CCC(=O)O)NC(=O)CNC(=O)[C@H](CCC(=O)O)NC(=O)[C@H](CC(C)C)NC(C)=O)C(C)C)[C@@H](C)CC)[C@@H](C)O` (Ac-LEGEREKVRAQI[β2hAla(2S)][β2hAla(2S)]EGMSTWS[β2hAla(2S)]RKKEE-X1)?
Answer: EC50 (Relaxin receptor 1 [1]): 17.6 nM; Emax [2]: 97%; half-life [3]: 4.3 h; EC50 (Relaxin receptor 1 [4]): > 3000 nM; Ratio EC50 [5]: > 170; remaining at 4 h, 5 µM [6]: 91%; remaining at 4 h, 5 µM [7]: 93%

Question: For `CCCCCCCCCCCCCCCCC(=O)[C@H](CCC(N)=O)NC(=O)[C@H](CCC(=O)O)NC(=O)[C@H](CCC(=O)O)NC(=O)[C@H](CCCCN)NC(=O)COCCOCCNC(=O)COCCOCCNC(=O)COCCOCCNC(=O)[C@H](CCCCCNC(C)=O)NC(=O)[C@H](CCCCN)NC(=O)[C@H](CCCCN)NC(=O)[C@H](CCCNC(=N)N)NC(=O)[C@@H](C)CNC(=O)[C@H](CO)NC(=O)[C@H](Cc1c[nH]c2ccccc12)NC(=O)[C@@H](NC(=O)[C@H](CO)NC(=O)[C@H](CCCCCNC(C)=O)NC(=O)[C@H](CCCCN)NC(=O)[C@H](CCCC)NC(=O)[C@H](CCSC)NC(=O)CNC(=O)[C@H](CCC(=O)O)NC(=O)[C@@H](C)CNC(=O)[C@@H](C)CNC(=O)[C@@H](NC(=O)[C@H](CCCCCNC(C)=O)NC(=O)[C@H](CCCCN)NC(=O)[C@H](C)NC(=O)[C@H](CCCNC(=N)N)NC(=O)[C@@H](NC(=O)[C@H](CCCCN)NC(=O)[C@H](CCC(=O)O)NC(=O)[C@H](CCCNC(=N)N)NC(=O)[C@H](CCC(=O)O)NC(=O)CNC(=O)[C@H](CCC(=O)O)NC(=O)[C@H](CC(C)C)NC(C)=O)C(C)C)[C@@H](C)CC)[C@@H](C)O` (Ac-LEGEREKVRAK[hLys](Ac)I[β2hAla(2S)][β2hAla(2S)]EGM[Nle]K[hLys](Ac)STWS[β2hAla(2S)]RKK[hLys](Ac)[AEEA][AEEA][AEEA]KEE-X1), which EC50 (Relaxin receptor 1 [1]) is on record?
Answer: The EC50 was 1 nM.

Question: And the Emax [2]?
Answer: Its Emax is 80%.

Question: What about the half-life [3] of the same compound?
Answer: Its half-life is 5.7 h.

Question: What about the EC50 (Relaxin receptor 1 [4]) of the same compound?
Answer: Its EC50 is 87 nM.

Question: And the Emax [8]?
Answer: The Emax was 96%.

Question: And the Ratio EC50 [5]?
Answer: The Ratio EC50 was 87.

Question: And the bioavailability [9]?
Answer: The bioavailability was 47%.

Question: And the remaining at 4 h, 5 µM [6]?
Answer: Its remaining at 4 h, 5 µM is 87%.

Question: And the remaining at 4 h, 5 µM [7]?
Answer: The remaining at 4 h, 5 µM was 79%.

Question: What does the source list for `CCCCCCCCCCCCCCCCCC(=O)[C@H](CCC(N)=O)NC(=O)[C@H](CCC(=O)O)NC(=O)[C@H](CCC(=O)O)NC(=O)[C@H](CCCCN)NC(=O)CCOCCOCCOCCOCCOCCOCCOCCOCCOCCOCCOCCNC(=O)[C@H](CCCCN)NC(=O)[C@H](CCCNC(=N)N)NC(=O)[C@@H](C)CNC(=O)[C@H](CO)NC(=O)[C@H](Cc1c[nH]c2ccccc12)NC(=O)[C@@H](NC(=O)[C@H](CO)NC(=O)[C@H](CCCC)NC(=O)[C@H](CCSC)NC(=O)CNC(=O)[C@H](CCC(=O)O)NC(=O)[C@@H](C)CNC(=O)[C@@H](C)CNC(=O)[C@@H](NC(=O)[C@H](CCC(N)=O)NC(=O)[C@H](C)NC(=O)[C@H](CCCNC(=N)N)NC(=O)[C@@H](NC(=O)[C@H](CCCCN)NC(=O)[C@H](CCC(=O)O)NC(=O)[C@H](CCCNC(=N)N)NC(=O)[C@H](CCC(=O)O)NC(=O)CNC(=O)[C@H](CCC(=O)O)NC(=O)[C@H](CC(C)C)NC(C)=O)C(C)C)[C@@H](C)CC)[C@@H](C)O` (Ac-LEGEREKVRAQI[β2hAla(2S)][β2hAla(2S)]EGM[Nle]STWS[β2hAla(2S)]RK[PEG11]KEE-X2)?
Answer: EC50 (Relaxin receptor 1 [1]): 1 nM; Emax [2]: 79%; half-life [3]: 4.8 h; EC50 (Relaxin receptor 1 [4]): 31 nM; Emax [8]: 80%; Ratio EC50 [5]: 31; bioavailability [9]: 100%

Question: Which results are given for `CCCCCCCCCCCCCCCCCC(=O)[C@H](CCC(N)=O)NC(=O)[C@H](CCC(=O)O)NC(=O)[C@H](CCC(=O)O)NC(=O)[C@H](CCCCN)NC(=O)COCCOCCNC(=O)COCCOCCNC(=O)COCCOCCNC(=O)[C@H](CCCCCNC(C)=O)NC(=O)[C@H](CCCCN)NC(=O)[C@H](CCCCN)NC(=O)[C@H](CCCNC(=N)N)NC(=O)[C@@H](C)CNC(=O)[C@H](CO)NC(=O)[C@H](Cc1c[nH]c2ccccc12)NC(=O)[C@@H](NC(=O)[C@H](CO)NC(=O)[C@H](CCCCCNC(C)=O)NC(=O)[C@H](CCCCN)NC(=O)[C@H](CCCC)NC(=O)[C@H](CCSC)NC(=O)CNC(=O)[C@H](CCC(=O)O)NC(=O)[C@@H](C)CNC(=O)[C@@H](C)CNC(=O)[C@@H](NC(=O)[C@H](CCCCCNC(C)=O)NC(=O)[C@H](CCCCN)NC(=O)[C@H](C)NC(=O)[C@H](CCCNC(=N)N)NC(=O)[C@@H](NC(=O)[C@H](CCCCN)NC(=O)[C@H](CCC(=O)O)NC(=O)[C@H](CCCNC(=N)N)NC(=O)[C@H](CCC(=O)O)NC(=O)CNC(=O)[C@H](CCC(=O)O)NC(=O)[C@H](CC(C)C)NC(C)=O)C(C)C)[C@@H](C)CC)[C@@H](C)O` (Ac-LEGEREKVRAK[hLys](Ac)I[β2hAla(2S)][β2hAla(2S)]EGM[Nle]K[hLys](Ac)STWS[β2hAla(2S)]RKK[hLys](Ac)[AEEA][AEEA][AEEA]KEE-X2)?
Answer: remaining at 4 h, 5 µM [10]: 111%; EC50 (Relaxin receptor 1 [1]): 0.2 nM; Emax [2]: 89%; solubility at 24 h [11]: 11.4 mg/mL (≈ 2330 µM); remaining at 4 h, 5 µM [12]: 114%; half-life [3]: 3.9 h; EC50 (Relaxin receptor 1 [4]): 18.4 nM; Emax [8]: 89%; Ratio EC50 [5]: 92; Activity [13]: Dose-dependent effect; Emin [14]: 26%
